# Results as given in patent USRE46630E1, “Substituted 4-pyridones and their use as inhibitors of neutrophil elastase activity” (Boehringer Ingelheim International GmbH, priority 2012, dated 2017).
# Target: T1, Human neutrophil elastase (Homo sapiens, UniProt P08246)
# T1 construct: purchased Calbiochem 324681
# T1 sequence (P08246 30-267): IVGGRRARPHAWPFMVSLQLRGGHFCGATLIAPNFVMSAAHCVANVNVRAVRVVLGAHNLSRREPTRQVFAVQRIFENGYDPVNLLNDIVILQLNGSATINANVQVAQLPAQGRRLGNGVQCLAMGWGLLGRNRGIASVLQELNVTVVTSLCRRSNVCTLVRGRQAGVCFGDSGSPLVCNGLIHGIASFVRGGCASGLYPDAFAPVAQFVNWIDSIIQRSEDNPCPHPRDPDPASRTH
# Assay: Human Neutrophil Elastase Assay
# Assay type: biochemical
# Conditions: Neutrophil Elastase assay; substrate MeOSuc-Ala-Ala-Pro-Val-AMC 250 μM; 15 min preincubation, 60 min incubation at room temperature; pH 7.5
# Method: Human Neutrophil Elastase Assay
# All other materials were of the highest grade commercially available.
# The following buffers were used: Compound buffer: 100 mM Tris, 500 mM NaCl, adjusted to pH 7.5; Assay buffer: 100 mM Tris, 500 mM NaCl, adjusted to pH 7.5, containing 0.01% BSA.
# Assay conditions: Test compounds were prediluted in DMSO and subsequently in compound buffer (5% DMSO final). […] After inactivation of the enzyme, fluorescence intensities were measured at 380 nm excitation and 460 nm emission wavelengths.
# Each plate contains wells with a high value control (DMSO+enzyme+substrate) and wells with a low value control (DMSO+inactivated enzyme+substrate). […] Means of low values were taken as 0%, means of high values as 100%.
row,IC50,Structure (SMILES)
1,12 nM,Cc1c(-c2cccc(C(F)(F)F)c2)c(=O)c(C(=O)NCCF)cn1C(C)c1ccc(C#N)cn1 (centres unmarked) [Example 47.6]
2,150 nM,COCC(C)(C#N)NC(=O)c1cn(C(C)c2ccc(C#N)cc2)c(C)c(-c2ccnc(C(F)(F)F)c2)c1=O (centres unmarked) [Example 9.49]
3,29.9 nM,Cc1c(-c2ccnc(C(F)(F)F)c2)c(=O)c(C(=O)NC2COCC2O)cn1C(C)c1ccc(C#N)cc1 (centres unmarked) [Example 9.42]
4,10.4 nM,COCCNC(=O)c1cn(Cc2ccc(C#N)cc2)c(C)c(-c2cccc(C(F)(F)F)c2)c1=O [Example 1.5]
5,7.8 nM,"CNC(=O)c1cn(C(C)c2ccc(C#N)cc2)c(C)c(-c2cccc(CF)c2)c1=O (centres unmarked) [Example 31, 1-[1-(4-Cyano-phenyl)-ethyl]-5-(3-fluoromethyl-phenyl)-6-methyl-4-oxo-1,4-dihydro-pyridine-3-carboxylic acid methylamide]"
6,1.7 nM,Cc1c(-c2cccc(C(F)F)c2)c(=O)c(C(=O)NC2CNC(=O)C2)cn1C(C)c1ccc(C#N)cc1 (centres unmarked) [Example 8.7]
7,2 nM,Cc1c(-c2cccc(C(F)(F)F)c2)c(=O)c(C(=O)NC2CCN(C)C2=O)cn1C(C)c1ccc(C#N)cc1 (centres unmarked) [Example 7.10]
8,33.3 nM,Cc1c(-c2ccnc(C(F)(F)F)c2)c(=O)c(C(=O)NCC2(C)COC2)cn1C(C)c1ccc(C#N)cc1 (centres unmarked) [Example 9.38]
9,14.4 nM,"Cc1c(-c2cccc(C(F)(F)F)c2)c(=O)c(C(=O)NCC2CCN(C(=O)C[N+](C)(C)C)CC2)cn1Cc1ccc(C#N)cc1 [Example 12.4, {2-[4-({[1-(4-Cyano-benzyl)-6-methyl-4-oxo-5-(3-trifluoromethyl-phenyl)-1,4-dihydro-pyridine-3-carbonyl]-amino}-methyl)-piperidin-1-yl]-2-oxo-ethyl}-trimethyl-ammonium chloride]"
10,48.1 nM,Cc1c(-c2cccc(C(F)(F)F)c2)c(=O)c(C(=O)NC(CO)CO)cn1Cc1ccc(C#N)cc1 [Example 1.19]
11,38.6 nM,COc1cc(-c2c(C)n(Cc3ccc(C#N)cc3)cc(C(=O)NCc3ccc(S(C)(=O)=O)cc3)c2=O)ccn1 [Example 6.6]
12,49.5 nM,"Cc1c(-c2cccc(C(F)(F)F)c2)c(=O)c(C(=O)NCCC[N+](C)(C)C)cn1Cc1ccc(C#N)cc1 [Example 12.2, (3-{[1-(4-Cyano-benzyl)-6-methyl-4-oxo-5-(3-trifluoromethyl-phenyl)-1,4-dihydro-pyridine-3-carbonyl]-amino}-propyl)-trimethyl-ammonium chloride]"
13,9.9 nM,"CNC(=O)c1cn(C(C)c2ccc(C#N)cn2)c(C)c(-c2cccc(C(F)F)c2)c1=O (centres unmarked) [Example 16, 1-[1-(5-Cyano-pyridin-2-yl)-ethyl]-5-(3-difluoromethyl-phenyl)-6-methyl-4-oxo-1,4-dihydro-pyridine-3-carboxylic acid methylamide]"
14,6.8 nM,Cc1c(-c2cccc(C(F)(F)F)c2)c(=O)c(C(=O)NC2CCN(C)C2=O)cn1Cc1ccc(C#N)cc1 (centres unmarked) [Example 1.57]
15,19.4 nM,Cc1c(-c2ccnc(C(F)(F)F)c2)c(=O)c(C(=O)NCC2CCCO2)cn1C(C)c1ccc(C#N)cc1 (centres unmarked) [Example 9.32]
16,420 nM,Cc1c(-c2ccnc(C(F)(F)F)c2)c(=O)c(C(=O)NCC(C)(C)C)cn1C(C)c1ccc(C#N)cc1 (centres unmarked) [Example 9.52]
17,4.6 nM,Cc1c(-c2ccnc(C(F)(F)F)c2)c(=O)c(C(=O)NC(C)C#N)cn1C(C)c1ccc(C#N)cc1 (centres unmarked) [Example 9.50]
18,5.2 nM,COCCNC(=O)c1cn(C(C)c2ccc(C#N)cc2)c(C)c(-c2ccnc(C(F)(F)F)c2)c1=O (centres unmarked) [Example 9.57]
19,63.8 nM,Cc1c(-c2cccc(C(F)(F)F)c2)c(=O)c(C(=O)NCc2ccc(S(C)(=O)=O)cn2)cn1Cc1cccc(C#N)c1 [Example 4.4]
20,3.3 nM,Cc1c(-c2cccc(C(F)F)c2)c(=O)c(C(=O)NCc2cnn(C)c2)cn1C(C)c1ccc(C#N)cc1 (centres unmarked) [Example 8.28]
21,4.4 nM,Cc1c(-c2cccc(C(F)F)c2)c(=O)c(C(=O)NCCn2cccn2)cn1C(C)c1ccc(C#N)cc1 (centres unmarked) [Example 8.15]

row,IC50,Structure (SMILES)
1,< 1 nM,Cc1c(-c2cccc(C(F)(F)F)c2)c(=O)c(C(=O)NCc2ccc(S(C)(=O)=O)cc2)cn1C(C)c1ccc(C#N)cn1 (centres unmarked) [Example 47.13]
2,14.4 nM,Cc1c(-c2cccc(C(F)(F)F)c2)c(=O)c(C(=O)NCCN2CCNC2=O)cn1Cc1ccc(C#N)cc1 [Example 1.21]
3,8.6 nM,Cc1c(-c2ccnc(C(F)(F)F)c2)c(=O)c(C(=O)NCC(C)O)cn1C(C)c1ccc(C#N)cc1 (centres unmarked) [Example 9.61]
4,1.5 nM,Cc1cccc(-c2c(C)n(Cc3ccc(C#N)cc3)cc(C(=O)NCc3ccc(S(C)(=O)=O)cc3)c2=O)c1 [Example 6.2]
5,36.9 nM,Cc1c(-c2cccc(C(F)(F)F)c2)c(=O)c(C(=O)NC2COC2)cn1Cc1ccc(C#N)cc1 [Example 1.38]
6,1.9 nM,Cc1noc(CNC(=O)c2cn(C(C)c3ccc(C#N)cc3)c(C)c(-c3cccc(C(F)F)c3)c2=O)n1 (centres unmarked) [Example 8.2]
7,12.9 nM,COCCNC(=O)c1cn(C(C)c2ccc(C#N)cn2)c(C)c(-c2cccc(C(F)(F)F)c2)c1=O (centres unmarked) [Example 47.1]
8,< 1 nM,"CCNC(=O)c1cn(C(C)c2ccc(C#N)cc2)c(C)c(-c2cccc(C(F)(F)F)c2)c1=O (single isomer, unassigned) [Example 10A]"
9,372 nM,"CNC(=O)c1cn(C(C)c2ccc(C#N)cn2)c(C)c(-c2cccc(C(F)F)c2)c1=O (single isomer, unassigned) [Example 16B]"
10,4.1 nM,Cc1c(-c2ccnc(C(F)(F)F)c2)c(=O)c(C(=O)NC2CCNC2=O)cn1C(C)c1ccc(C#N)cc1 (centres unmarked) [Example 9.4]
11,1.1 nM,Cc1c(-c2cccc(C(F)(F)F)c2)c(=O)c(C(=O)NCc2ccc([S+](C)[O-])cc2)cn1Cc1ccc(C#N)cc1 (centres unmarked) [Example 1.10]
12,23 nM,Cc1c(-c2ccnc(C(F)(F)F)c2)c(=O)c(C(=O)NCC(C)C)cn1C(C)c1ccc(C#N)cc1 (centres unmarked) [Example 9.53]
13,6.2 nM,Cc1c(-c2cccc(C(F)(F)F)c2)c(=O)c(C(=O)NCCS(C)(=O)=O)cn1Cc1ccc(C#N)cc1 [Example 1.66]
14,< 1 nM,Cc1c(-c2cccc(C(F)(F)F)c2)c(=O)c(C(=O)NCc2ccc(S(C)(=O)=O)cc2)cn1Cc1ccc(C#N)c(F)c1 [Example 2.9]
15,4.6 nM,CCNC(=O)c1cn(Cc2ccc(C#N)cc2S(C)(=O)=O)c(C)c(-c2cccc(C(F)(F)F)c2)c1=O [Example 21]
16,8.1 nM,Cc1c(-c2cccc(C(F)(F)F)c2)c(=O)c(C(=O)N[C@H]2CCNC2=O)cn1Cc1ccc(C#N)cc1 [Example 1.58]
17,9 nM,Cc1c(-c2cccc(C(F)(F)F)c2)c(=O)c(C(=O)N[C@H]2CCC(=O)NC2)cn1Cc1ccc(C#N)cc1 [Example 1.53]
18,59.7 nM,"Cc1c(-c2cccc(C(F)(F)F)c2)c(=O)c(C(=O)NCC2CC[N+](C)(C)CC2)cn1Cc1ccc(C#N)cc1 [Example 12.3, 4-({[1-(4-Cyano-benzyl)-6-methyl-4-oxo-5-(3-trifluoromethyl-phenyl)-1,4-dihydro-pyridine-3-carbonyl]-amino}-methyl)-1,1-dimethyl-piperidinium chloride]"
19,3.6 nM,Cc1c(-c2cccc(C(F)(F)F)c2)c(=O)c(C(=O)NCC(F)F)cn1C(C)c1ccc(C#N)cc1 (centres unmarked) [Example 7.20]
20,6.6 nM,Cc1c(-c2cccc(C(F)(F)F)c2)c(=O)c(C(=O)NCC[S+](C)[O-])cn1Cc1ccc(C#N)cc1 (centres unmarked) [Example 1.13]
